Laboratory results reported in US5605892A, “Compositions of arginine amide with cyclodextrin of caffeine, and methods of use” (priority 1993, dated 1997).

Assays:
[1] = Solubility test of argatroban in water with various compounds (shaken with excess argatroban, HPLC); format: physicochemical; conditions: for solubility thermodynamic at 12 h: phosphate buffer, pH 7, aqueous buffer, phosphate buffer pH 7.0, 25° C.
Protocol: The solubility of argatroban in water was determined by the use of various compounds.
An excess amount of argatroban was added to a phosphate buffer (pH 7.0) containing a compound at a concentration of 1.0 W/V % and the mixture was shaken at 25° C. for 12 hours. The amount of the argatroban dissolved in this solution was measured by HPLC to determine the solubility.

[2] = Stability test: aqueous solutions in glass ampoules preserved in shade or under light exposure; format: physicochemical; conditions: argatroban with caffeine
Excerpt: Aqueous solutions (pH 7) containing 0.05 W/V % or 0.1 W/V % argatroban and having the formulations 1-6 shown in Table 2 below were filled in glass ampoules and preserved in shade or under light exposure of […]. Each solution was examined for pH, appearance, insoluble matter and residual content of argatroban.

[3] = test system: fibrin formation in anterior sac; experiment: Inhibition of fibrin formation in anterior sac after argon laser irradiation of iris, slit lamp evaluation; format: in vivo, colored house rabbits
Excerpt: Reference Example--Argatroban concentration and inhibition of fibrin formation in anterior sac
Animal used: 18 colored house rabbits weighing 2 kg and showing no abnormality in the eyes by visual observation
Drug used: test drug (a solution of argatroban at a concentration of 0.1 W/V % or 0.2 W/V % prepared according to the eye drop of Example 1)
: control (physiological saline)
Test: Fibrin was formed in anterior sac by irradiation at four sites in iris with argon laser (AC-3500, Nidek). The irradiation was conducted at a spot size of 100 μm, time 0.2 sec and output 1 watt. The fibrin in anterior sac was evaluated according to the evaluation criteria given below for the visual observation with time with a slit lamp after the irradiation up to 3 hours thereafter.
The test drug argatroban was administered 7 times by installation of 50 μl of the drug to one of the eyes every 10 minutes beginning from 30 minutes before the laser irradiation to 30 minutes after the irradiation, and physiological saline was administered to the other eye.
Slit lamp observation: The presence of fibrin at the 4 sites irradiated with laser was graded (0 or 1). When the fibrin amount was great, the grade was doubled. The fibrin in pupil region was graded in five stages of from 0 to 4 points. The full mark was; irradiation site: 4 points×2+pupil region: 4 points=12 points.

[4] = Solubility of argatroban in water (background statement); format: physicochemical; conditions: 25° C., pH range 7.2-7.8
Protocol: (§1) Taking one of the aforementioned arginine amides, (2R,4R)4-methyl-1-[N^2 -((RS)-3-methyl-1,2,3,4-tetrahydro-8-quinolinesulfonyl)-L-arginyl]-2-piperidinecarboxylic acid monohydrate (generally called argatroban) as an example, it is used at a concentration of 1 mg/ml or above as an eye drop or entoptic perfusate for the above-mentioned purpose.

[5] = Stability of aqueous solution of argatroban in a brown bottle (background statement); format: physicochemical
Protocol: as §1

[6] = test system: fibrin formation; conditions: administration for a few weeks after the operation, cited from earlier work
[7] = Eye irritation examination; format: in vivo, house rabbits
Excerpt: Eye irritation caused by the respective, aforementioned solutions of α-cyclodextrin, β-cyclodextrin, γ-cyclodextrin and caffeine was examined using house rabbits.

[8] = solutions of Example 1, compound at 1.0 W/V %

CC1CNc2c(cccc2S(=O)(=O)N[C@@H](CCCNC(=N)N)C(=O)N2CC[C@@H](C)C[C@@H]2C(=O)O)C1.O (mixture of isomers) [argatroban, (2R,4R)4-methyl-1-[N^2-((RS)-3-methyl-1,2,3,4-tetrahydro-8-quinolinesulfonyl)-L-arginyl]-2-piperidinecarboxylic acid monohydrate]
solubility thermodynamic at 12 h ([1]; argatroban with caffeine 1.0 W/V %): 2000 µg/mL
solubility thermodynamic at 12 h ([1]; argatroban with α-cyclodextrin 1.0 W/V %): 1340 µg/mL
solubility thermodynamic at 12 h ([1]; argatroban with β-cyclodextrin 1.0 W/V %): 2590 µg/mL
solubility thermodynamic at 12 h ([1]; argatroban with γ-cyclodextrin 1.0 W/V %): 1320 µg/mL
solubility thermodynamic at 12 h ([1]; argatroban, no compound added): 930 µg/mL
solubility of argatroban relative to that obtained when no compound was added ([1]; with caffeine 1.0 W/V %): about twice
improvement in solubility ([1]; with α-, β-, γ-cyclodextrin and caffeine): superior improvement in solubility
solubility of argatroban relative to that obtained when no compound was added ([1]; with β-cyclodextrin 1.0 W/V %): about thrice
stability against light [2]: improved by caffeine
percent inhibition of fibrin formation ([3]; 0.1 W/V % argatroban, 50 μl instilled 7 times every 10 minutes): about 50%
inhibition of fibrin formation at every measurement point ([3]; 0.1 W/V % argatroban, up to 3 hours after laser irradiation): significantly inhibited
inhibition of fibrin formation ([3]; 0.2 W/V % argatroban, 50 μl instilled 7 times every 10 minutes): completely inhibited
solubility [4]: ~900 µg/mL
preservation stability of aqueous solution [5]: can be preserved stably in a brown bottle

COc1ccc2c(c1)c(CC(=O)O)c(C)n2C(=O)c1ccc(Cl)cc1 [indomethacin]
effect after entoptic operation [6]: has not shown dependable effects
adverse effects after entoptic operation ([6]; though not often): delay in healing of wounds or disorders in cornea

OC[C@H]1O[C@@H]2O[C@H]3[C@H](O)[C@@H](O)[C@@H](O[C@H]4[C@H](O)[C@@H](O)[C@@H](O[C@H]5[C@H](O)[C@@H](O)[C@@H](O[C@H]6[C@H](O)[C@@H](O)[C@@H](O[C@H]7[C@H](O)[C@@H](O)[C@@H](O[C@H]1[C@H](O)[C@H]2O)O[C@@H]7CO)O[C@@H]6CO)O[C@@H]5CO)O[C@@H]4CO)O[C@@H]3CO [α-cyclodextrin]
Eye irritation ([7]; rabbit, in vivo): no specific problems, thus showing no harmful effect on the eye tissue

Cn1c(=O)c2c(ncn2C)n(C)c1=O [caffeine]
Eye irritation [7, 8]: no specific problems, thus showing no harmful effect on the eye tissue

OC[C@H]1O[C@@H]2O[C@H]3[C@H](O)[C@@H](O)[C@@H](O[C@H]4[C@H](O)[C@@H](O)[C@@H](O[C@H]5[C@H](O)[C@@H](O)[C@@H](O[C@H]6[C@H](O)[C@@H](O)[C@@H](O[C@H]7[C@H](O)[C@@H](O)[C@@H](O[C@H]8[C@H](O)[C@@H](O)[C@@H](O[C@H]9[C@H](O)[C@@H](O)[C@@H](O[C@H]1[C@H](O)[C@H]2O)O[C@@H]9CO)O[C@@H]8CO)O[C@@H]7CO)O[C@@H]6CO)O[C@@H]5CO)O[C@@H]4CO)O[C@@H]3CO [γ-cyclodextrin]
Eye irritation [7, 8]: no specific problems, thus showing no harmful effect on the eye tissue

OC[C@H]1O[C@@H]2O[C@H]3[C@H](O)[C@@H](O)[C@@H](O[C@H]4[C@H](O)[C@@H](O)[C@@H](O[C@H]5[C@H](O)[C@@H](O)[C@@H](O[C@H]6[C@H](O)[C@@H](O)[C@@H](O[C@H]7[C@H](O)[C@@H](O)[C@@H](O[C@H]8[C@H](O)[C@@H](O)[C@@H](O[C@H]1[C@H](O)[C@H]2O)O[C@@H]8CO)O[C@@H]7CO)O[C@@H]6CO)O[C@@H]5CO)O[C@@H]4CO)O[C@@H]3CO [β-cyclodextrin]
Eye irritation ([7]; rabbit, in vivo): no specific problems, thus showing no harmful effect on the eye tissue
